Values quoted from earlier work in US20100273275A1, “Methods of determining levels of steroid fractions utilizing SHBG calculations” (priority 2005, published 2010).

Tests used:
albumin = albumin (Homo sapiens, UniProt P02768); conditions: for KAS (association constant for albumin-binding to a steroid ligand): constants used for calculations, Dunn et al. (1981), Moll et al. (1981), Rosner (1991)
SHBG = target: T1, SHBG (Homo sapiens, UniProt P04278); conditions: for KPS (association constant for SHBG-binding to a steroid ligand): constants used for calculations, Dunn et al. (1981), Moll et al. (1981), Rosner (1991)
T1 sequence (P04278 30-402): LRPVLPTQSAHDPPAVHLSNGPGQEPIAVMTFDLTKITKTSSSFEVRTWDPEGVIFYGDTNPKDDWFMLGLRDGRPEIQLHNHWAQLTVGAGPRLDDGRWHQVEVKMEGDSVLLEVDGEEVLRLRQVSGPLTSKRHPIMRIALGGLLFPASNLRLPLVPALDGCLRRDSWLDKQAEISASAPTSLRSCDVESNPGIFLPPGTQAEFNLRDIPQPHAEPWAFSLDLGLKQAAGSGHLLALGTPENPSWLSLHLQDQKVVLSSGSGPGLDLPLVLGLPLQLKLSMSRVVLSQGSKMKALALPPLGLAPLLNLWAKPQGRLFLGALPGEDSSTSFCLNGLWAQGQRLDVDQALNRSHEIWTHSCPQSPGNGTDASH

[1] = constant used for free and bioavailable testosterone calculation

albumin, sequence (P02768 25-609): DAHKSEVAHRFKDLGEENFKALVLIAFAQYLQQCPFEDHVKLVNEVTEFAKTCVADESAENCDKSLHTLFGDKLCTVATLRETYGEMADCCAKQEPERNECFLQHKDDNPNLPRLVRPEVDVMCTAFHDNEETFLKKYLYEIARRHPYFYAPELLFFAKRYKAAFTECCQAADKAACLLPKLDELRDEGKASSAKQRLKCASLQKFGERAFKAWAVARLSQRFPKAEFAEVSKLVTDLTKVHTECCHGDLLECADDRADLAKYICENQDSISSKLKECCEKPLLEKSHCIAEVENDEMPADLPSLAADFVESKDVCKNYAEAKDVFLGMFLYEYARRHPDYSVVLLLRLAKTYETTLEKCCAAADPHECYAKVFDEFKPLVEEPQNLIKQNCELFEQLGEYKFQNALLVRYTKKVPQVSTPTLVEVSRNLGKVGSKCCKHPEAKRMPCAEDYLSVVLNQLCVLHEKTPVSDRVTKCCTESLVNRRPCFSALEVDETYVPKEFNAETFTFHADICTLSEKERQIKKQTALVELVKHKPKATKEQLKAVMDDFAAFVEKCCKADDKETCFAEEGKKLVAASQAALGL

C[C@]12CCC(=O)C=C1CC[C@@H]1[C@@H]2CC[C@]2(C)C(=O)CC[C@@H]12 [Androstenedione]
KAS (association constant for albumin-binding to a steroid ligand) (albumin): 20000 [M^−1] | KPS (association constant for SHBG-binding to a steroid ligand) (SHBG): 0.029 [M^−1] × 10^9

C[C@]12CC[C@H](O)CC1=CC[C@@H]1[C@@H]2CC[C@]2(C)C(=O)CC[C@@H]12 [Dehydroepiandrosterone]
KAS (association constant for albumin-binding to a steroid ligand) (albumin): 40000 [M^−1]

C[C@]12CC[C@H](O)CC1=CC[C@@H]1[C@@H]2CC[C@]2(C)C(=O)CC[C@@H]12 [Dihydroandrosterone]
KAS (association constant for albumin-binding to a steroid ligand) (albumin): 180000 [M^−1]

C[C@]12CCC(=O)C[C@@H]1CC[C@@H]1[C@@H]2CC[C@]2(C)[C@@H](O)CC[C@@H]12 [Dihydrotestosterone]
KAS (association constant for albumin-binding to a steroid ligand) (albumin): 79800 [M^−1] | KPS (association constant for SHBG-binding to a steroid ligand) (SHBG): 2.0 [M^−1] × 10^9

C[C@]12CC[C@H]3[C@@H](CCC4=CC(=O)CC[C@@]43C)[C@@H]1CC[C@@H]2O [Testosterone]
KA (association constant, albumin) (albumin; [1]): 36000 L/mol | KAS (association constant for albumin-binding to a steroid ligand) (albumin): 36000 [M^−1] | KS (association constant, SHBG) (SHBG; [1]): 1e+09 L/mol
